Experimental data reported in patent US10653642B2, “Compositions and methods for the treatment of tauopathies” (UNIVERSITY OF SOUTH FLORIDA, priority 2017, dated 2020).

How the values were obtained:
Format in all cases: cell-based
inducible tau = experiment: Western blot of tau levels in iHEK280 cells (inducible tau model); conditions: for levels of phosphorylated tau / levels of total tau: 0.5-2.5 μM
Method: (§1) It was examined whether hexachlorophene can regulate levels of tau in cellular models. Three different cells lines were treated with hexachlorophene at various different doses. M17 neuroblastoma cells were treated with 1 μM, 2 μM, 3 μM, 5 μM, and 10 μM hexachlorophene. HeLa C3 cells were treated with 0.5 μM, 1 μM, 2 μM, 3 μM, and 5 μM hexachlorophene. iHEK280 cells (an inducible tau model) were treated with 0.5 μM, 1 μM, 1.5 μM, 2 μM, and 2.5 μM hexachlorophene. Cell lysates were analyzed by Western blotting for total tau, phosphorylated tau, and actin (as a control). We also analyzed the effect of hexachlorophene on various pathological forms of tau such as the phosphoserine 396 tau form that localizes to the soluble fraction. Hexachlorophene was purchased from Sigma-Aldrich (St. Louis, Mo.). BE(2) M17 neuroblastoma cells were purchased from ATCC (Manassas, Va.). HeLa C3 cells were generated according to Jinwal et al. (J. Neurosci. 2009, 29, 12079-12088). iHEK cells were generated according to Abisambra et al. (J. Neurosci. 2013, 33, 9498-9507). Neuro-2a (N2a) mouse neuroblastoma cells overexpressing human tau-GFP were generated in house.

endogenous tau = experiment: Western blot of tau levels in M17 neuroblastoma cells
Method: as §1

tau aggregates = experiment: Thioflavin-S staining of tau aggregates in HEK280 cells
Method: We examined the effect of hexachlorophene on tau aggregation using thioflavin-S staining. Thioflavin S is a mixture of compounds that results from the methylation of dehydrothiotoluidine with sulfonic acid, and it is used to stain tau aggregates. Upon binding tau aggregates, thioflavin S gives a distinct increase in fluorescence emission. Thioflavin-S staining was performed by incubating HEK280 cells with 0.1% thioflavin-S for 5 min, with or without 1 μM hexachlorophene. Cells were also labelled with a primary rabbit polyclonal Tau Antibody diluted with 5% goat serum and a secondary anti-rabbit antibody labeled with red. Cells containing distinct thioflavin-S signals indicating the presence of aggregated protein were scored in many independent fields containing a total of 500 cells.

over-expressed tau = target: T1, over-expressed tau (Homo sapiens, UniProt P10636); experiment: Western blot of tau levels in HeLa C3 cells with over-expressed tau; conditions: for phosphorylated tau levels / total tau levels: 0.5-5 μM
T1 construct: expressed in transfected cells; host or cells: HeLa C3 cells
Method: as §1

human tau-GFP [1] = experiment: Western blot of tau in Neuro-2a (N2a) mouse neuroblastoma cells overexpressing human tau-GFP; conditions: nanomolar concentrations, 24 hours
Method: as §1
Neuro-2a (N2a) mouse neuroblastoma cells overexpressing human tau-GFP were examined for the effect of hexachlorophene on tau protein using Western blot analysis. […]

human tau-GFP [2] = experiment: Immunofluorescence and confocal microscopy of Neuro-2a cells overexpressing human tau-GFP; conditions: N2a cells, immunofluorescence, 0.1-3 μM, 24 hours
Excerpt: Neuro-2a (N2a) mouse neuroblastoma cells overexpressing human tau-GFP were examined for the effect of hexachlorophene on tau protein using Western blot analysis. […] Immunofluorescence and confocal microscopy were also used to analyze the effect of hexachlorophene on the cells.

[3] = 24 hours, listed as Hexachlorophene

T1 sequence (P10636 1-383 isoform P10636-6): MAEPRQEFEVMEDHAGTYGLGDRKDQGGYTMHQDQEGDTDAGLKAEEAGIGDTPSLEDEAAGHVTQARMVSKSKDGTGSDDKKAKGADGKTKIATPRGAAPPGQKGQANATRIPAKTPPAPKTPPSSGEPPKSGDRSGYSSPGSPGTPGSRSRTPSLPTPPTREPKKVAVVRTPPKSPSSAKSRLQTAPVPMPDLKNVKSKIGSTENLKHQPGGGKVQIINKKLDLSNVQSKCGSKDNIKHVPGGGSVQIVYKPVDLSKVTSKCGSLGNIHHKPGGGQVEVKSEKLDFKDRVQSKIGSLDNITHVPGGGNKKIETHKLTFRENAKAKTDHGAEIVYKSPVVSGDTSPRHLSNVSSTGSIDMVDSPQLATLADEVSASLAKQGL

`Oc1c(Cl)cc(Cl)c(Cl)c1Cc1c(O)c(Cl)cc(Cl)c1Cl` [hexachlorophene] was tested, and the “levels of phosphorylated serine 396 tau in the soluble fraction” value (“levels … in the soluble fraction” below) (inducible tau) was “decreased”, the “phosphorylated tau (Pser396)” value (inducible tau; 1.5 μM, 24 hours) was “completely cleared” and the total tau (inducible tau; 1.5 μM, 24 hours) was “partially cleared”. The “phosphorylated tau (Pser396) levels” value (inducible tau; 2 μM, 24 hours) was “cleared”, the total tau protein (inducible tau; 2 μM, 24 hours) was “cleared” and the “levels of phosphorylated tau” value (inducible tau; 24 hours) was “decreased”. For the same compound, the “levels of total tau” value (inducible tau; 24 hours) was “decreased”, the “levels of phosphorylated tau” value (inducible tau; [3]) was “significantly reduced” and the “levels of total tau” value (inducible tau; [3]) was “significantly reduced”. The “levels … in the soluble fraction” value (endogenous tau) was “decreased”, the “phosphorylated (Pser396) tau proteins” value (endogenous tau; 10 μM, 24 hours) was “completely cleared” and the “levels of endogenous (total) tau” value (endogenous tau; 1-10 μM, 24 hours) was “decreased”. For the same compound, the “phosphorylated form of endogenous tau” value (endogenous tau; 1-10 μM, 24 hours) was “significantly reduced”, the “levels of endogenous (total) tau” value (endogenous tau; 1-10 μM, 24 hours, listed as Hexachlorophene) was “significantly reduced” and the “tau aggregation (thioflavin-S staining)” value (tau aggregates; 1 μM) was “significant reduction”. For the same compound, the “tau aggregates (thioflavin-S signal)” value (tau aggregates; 24 hours) was “reduced”, the “levels … in the soluble fraction” value (over-expressed tau) was “decreased” and the “phosphorylated tau (Pser396)” value (over-expressed tau; 2 μM, 24 hours) was “completely cleared”. For the same compound, the total tau (over-expressed tau; 2 μM, 24 hours) was “partially cleared”, the phosphorylated tau levels (over-expressed tau; 24 hours) was “decreased” and the total tau levels (over-expressed tau; 24 hours) was “decreased”. The phosphorylated tau levels (over-expressed tau; [3]) was “significantly reduced”, the total tau levels (over-expressed tau; [3]) was “significantly reduced” and the “phosphorylated tau (Pser396 & Pser199)” value (human tau-GFP [1]) was “reduced”. For the same compound, the total tau protein (human tau-GFP [1]) was “reduced”, the “phosphorylated tau (Pser396 and Pser199)” value (human tau-GFP [2]) was “reduced” and the total tau protein (human tau-GFP [2]) was “reduced”.
